From US10980805B2, “Aza-pyridone compounds and uses thereof” (Janssen BioPharma, Inc., priority 2013, dated 2021) come the findings set out here.

SMILES strings stand for the structures. pEC50, pIC50: −log10 of the molar value.

Test [1] has as its system Influenza strain A549_A/WSN/33 (H1N1). The test is described as follows: Influenza antiviral assay (neuraminidase fluorescence readout). The class given is cell-based, Influenza virus. Conditions: Influenza A virus, read-out: % Inhibition (EC50 class, Table 2).
Test [2] concerns the target Full length EN PA (influenza PA endonuclease) (Influenza A virus, UniProt P15659). Briefly: EN PA FRET inhibition assay. Format: biochemical. Conditions: FRET probe, mean of a minimum of two independent experiments, read-out: Potency (IC50 class, Table 3).
In test [3] the test system is influenza strains B/Malaysia/2506/2004 or B/Victoria/504/2000. The test is described as follows: Influenza B assay (fluorescence-based influenza neuraminidase assay). The class given is cell-based. Conditions: Influenza B virus, A549, 20 h; read-out: Potency (EC50).
Test [4] deals with Influenza strain A/Port Chalmers/1/73 (H3N2). Briefly: Combination studies (checker-board, MacSynergy II). The class given is cell-based, Influenza virus. Conditions: MDCK cells, three days.
Where [5] appears, read: Compound 2 = Amantadine (M2 Channel-Inhibitor).
Setting [6] is: Compound 2 = Favipiravir (T-705) (Polymerase Inhibitor).
Where [7] appears, read: Compound 2 = Oseltamivir (Neuraminidase-Inhibitor).
Setting [8] is: Compound 2 = Peramivir (Neuraminidase-Inhibitor).
[9] abbreviates: Compound 2 = Ribavirin (Polymerase Inhibitor).
Setting [10] is: Compound 2 = Rimantadine (M2 Channel-Inhibitor).
Setting [11] is: Compound 2 = Zanamivir (Neuraminidase-Inhibitor).
The mark [12] stands for this setting: Compound 2 = 21-A (PA Inhibitor).
[13] abbreviates: Compound 2 = drawing 296 (Polymerase Inhibitor).

For `COCCN1C[C@H](C(c2cccc(F)c2)c2cccc(F)c2)n2ncc(=O)c(O)c2C1=O` [Compound 76-A], the pEC50 in test [1] and in test [3] was more than 4.70 each time. Further, the pIC50 in test [2] is more than 6.60.
Take `CC(C)N1C[C@H](C(c2cccc(F)c2)c2cccc(F)c2)n2ncc(=O)c(O)c2C1=O` [Compound 41-A]: the pEC50 in test [1] and in test [3] was more than 4.70 throughout. In addition, the pIC50 in test [2] is more than 6.60.
For the molecule `CN1C[C@H](C2c3ccccc3CCc3ccccc32)n2ncc(=O)c(O)c2C1=O` [Compound 7-A], the pEC50 in test [1] and in test [3] was more than 4.70 in each case. Besides, the pIC50 in test [2] is more than 6.60.
Take `CC(C)N1C[C@H](C(c2cccc(Cl)c2)c2cccc(Cl)c2)n2ncc(=O)c(O)c2C1=O` [Compound 68-A]: the pEC50 in test [1] and in test [3] was more than 4.70 throughout. Besides, the pIC50 in test [2] was more than 6.60.
Regarding `CC(C)C(=O)Oc1c2n(ncc1=O)[C@@H](C1c3cccc(F)c3CCc3c(F)cccc31)CN(C(C)C)C2=O` [Compound 114-A], the pEC50 in test [1] was more than 4.70. The pIC50 in test [2] is more than 6.60. Also, the “Synergy Volume” value in test [4] (setting [5]) is 86 μM^2%; in test [4] (setting [6]), 132 μM^2%; in test [4] (setting [7]), 205 μM^2%; in test [4] (setting [8]), 100 μM^2%; in test [4] (setting [9]) it was 55 μM^2%; in test [4] (setting [10]), 45 μM^2%. In addition, the “Synergy Volume” value in test [4] (setting [11]) is recorded as 127 μM^2%. In addition, in test [4] (setting [10]), the “Observed Result” value is “synergistic (volumes in the 25-100 range indicate synergistic behavior)”.
For `CCN1C[C@H](C(c2cccc(F)c2)c2cccc(F)c2)n2ncc(=O)c(O)c2C1=O` [Compound 21-A], the pEC50 in test [1] and in test [3] was more than 4.70 in each case. Besides, the pIC50 in test [2] is more than 6.60.
As for `CC(C)N1C[C@H](C(c2ccccc2)c2ccccc2)n2ncc(=O)c(O)c2C1=O` [Compound 6-A], the pEC50 in test [1] and in test [3] was more than 4.70 in each case. In test [2], the pIC50 is more than 6.60. In addition, the “Observed Result” value in test [4] (setting [12]) is “additive (volumes in the −25-25 range indicate additive behavior)”; in test [4] (setting [5]), “additive (volumes in the −25-25 range indicate additive behavior)”; in test [4] (setting [10]) it was “additive (volumes in the −25-25 range indicate additive behavior)”; in test [4] (setting [13]), “strongly synergistic”. In addition, the “Synergy Volume” value in test [4] (setting [12]) is 4.1 μM^2%; in test [4] (setting [5]) it was 22.5 μM^2%; in test [4] (Compound 2 = Consensus Interferon alpha (Immuno-modulator)) it was 70 μM^2%; in test [4] (setting [6]), 185 μM^2%; in test [4] (Compound 2 = Laninamivir (Neuraminidase-Inhibitor)), 276 μM^2%; in test [4] (setting [7]), 233 μM^2%. The “Synergy Volume” value in test [4] (setting [8]) is listed as 308 μM^2%; in test [4] (setting [9]), 109 μM^2%; in test [4] (setting [10]) it was 4.6 μM^2%; in test [4] (setting [11]) it was 217 μM^2%; in test [4] (setting [13]) it was 440 μM^2%.
On to `CCN1C[C@H](C(c2cccc(Cl)c2)c2cccc(Cl)c2)n2ncc(=O)c(O)c2C1=O` [Compound 39-A], for which the pEC50 in test [1] and in test [3] was more than 4.70 each time. Also, the pIC50 in test [2] is more than 6.60.
Take `CCN1C[C@H]([C@@H](c2ccccc2)c2cccc(Cl)c2)n2ncc(=O)c(OC(=O)C(C)C)c2C1=O` [Compound 67-A]: the pEC50 in test [1] is more than 4.70. The pIC50 in test [2] was more than 6.60.
For `Cc1cccc(C(c2cccc(C)c2)C2CN(C(C)C)C(=O)c3c(O)c(=O)cnn32)c1` (centres unmarked) [Compound 48] the same measures were more than 4.70 and more than 6.60.
On the same counts, the results for `CN1C[C@@H](C2c3ccc(F)cc3CCc3c(F)cccc32)n2ncc(=O)c(O)c2C1=O` (some centres unmarked) [Compound 81-B] are 4.00 to 4.70 and more than 6.60.
As for `CN1C[C@@H](C2c3ccccc3CCc3cccnc32)n2ncc(=O)c(O)c2C1=O` (some centres unmarked) [Compound 42-B], the pEC50 in test [1] was 4.00 to 4.70. For the same molecule, the pIC50 in test [2] is 6.00 to 6.60.
On to `CCN1CC(C(c2cccc(C)c2)c2cccc(C)c2)n2ncc(=O)c(O)c2C1=O` (centres unmarked) [Compound 36], for which the negative-log EC50 (pEC50) in test [1] is more than 4.70. For the same molecule, in test [2], the pIC50 is more than 6.60.
For `O=C1c2c(O)c(=O)cnn2[C@@H](C(c2ccccc2)c2ccccc2)CN1CC1CC1` [Compound 97-A] the same measures were more than 4.70 and more than 6.60.
Turning to `CN1C[C@H](C2c3ccccc3CCc3cccnc32)n2ncc(=O)c(O)c2C1=O` (some centres unmarked) [Compound 42-A], the pEC50 in test [1] is more than 4.70. In test [2], the pIC50 is more than 6.60.
For the molecule `CC(C)N1C[C@H](C(c2ccccc2)c2ccccc2)n2ncc(=O)c(OCOC(=O)C(C)(C)N)c2C1=O` [Compound 113-A], the pEC50 in test [1] was more than 4.70. Also, the negative logarithm of the IC50 (pIC50) in test [2] was more than 6.60.
Consider `CN1C[C@@H](C2c3cc(F)ccc3CCc3ccc(F)cc32)n2ncc(=O)c(O)c2C1=O` [Compound 45-B], for which the pEC50 in test [1] was 4.00 to 4.70. Also, the pIC50 in test [2] is more than 6.60.
For `CN1CC(C(c2ccccc2)c2cccc(Cl)c2)n2ncc(=O)c(O)c2C1=O` (centres unmarked) [Compound 9] the same measures were more than 4.70 and more than 6.60.
Regarding `CCN1C[C@H]([C@@H](c2ccccc2)c2cccc(Cl)c2)n2ncc(=O)c(O)c2C1=O` [Compound 12-A], the pEC50 in test [1] was more than 4.70. For the same molecule, the pIC50 in test [2] is more than 6.60.
